Results on 9 compounds are retold here after PubChem BioAssay (NCI).

Molecules are shown by their SMILES.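 A five-concentration, 48-hour dose response in 96-well plates underlies each endpoint, interpolated linearly between surrounding concentrations. GI50 = concentration required for 50% inhibition of growth. At the TGI there is no net growth.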 A value given as a limit tells only on which side of the number the result lay.

What all share (assay): NCI tumour cell line growth inhibition, 48 h
The test system of assay [1] is TK-10 renal.
The test system of assay [2] is OVCAR-4 ovarian.
Assay [3] has as its system HL-60(TB) leukemia.
Assay [4] relates to U251 CNS.
Assay [5] deals with OVCAR-8 ovarian.
The test system of assay [6] is M14 melanoma.
In assay [7] the test system is MDA-MB-435.
Assay [8] concerns SK-MEL-2 melanoma.
Assay [9] relates to HCT-15 colon.
Assay [10] concerns EKVX NSCLC.

Consider `O=C(Nc1ccc(N=C=S)cc1Cl)c1cc(Br)cc(Br)c1O`, for which the TGI in [1] was 69.5 µM; in assay [2] it was over 100 µM; in assay [3], over 100 µM; in assay [4] it was 53.1 µM; in assay [5], 46.6 µM; in [6], over 100 µM. Also, the TGI in assay [7] is 71.4 µM; in [8], over 100 µM; in assay [9], 31.3 µM.

`CSC1=Nc2c(c(C)c(C)n2COC(CO)CO)C2=NC(=O)CN12`: the GI50 in assay [1], in assay [2], in [4], in [5], in assay [10] and in assay [7] was over 100 µM each time. For the same compound, the GI50 in [8] and in [9] was over 100 µM each time. Moreover, the TGI in assay [1], in assay [2], in [4], in assay [5], in assay [10] and in [7] was over 100 µM each time. Besides, the TGI in [8] and in assay [9] was over 100 µM each time.

For `CNCc1cccc2c1OCCOCCOCCN(C)S(=O)(=O)c1ccc(cc1)-c1cnc(N)c(n1)C(=O)N2`, the GI50 in assay [1] was 2.06 µM; in assay [3], 0.578 µM; in [4] it was 1.53 µM; in assay [5], 1.88 µM; in [10], 2.83 µM; in assay [6], 1.11 µM. For the same compound, the GI50 in [7] was 1.28 µM; in assay [8] it was 1.42 µM; in assay [9], 1.77 µM. In addition, the TGI in assay [1] is 20.8 µM; in [3], 3.14 µM; in assay [4], 3.37 µM; in [5], 4.46 µM; in assay [10] it was 12.7 µM; in assay [6], 3.4 µM. Besides, the TGI was determined as 2.69 µM in assay [7], 4.27 µM in assay [8] and 7.78 µM in assay [9].

On to `Nc1ncc(Cc2ccc3c(c2)OCO3)c(N)n1`, for which the TGI in assay [1], in [2], in [3], in assay [4], in assay [5] and in [10] was over 100 µM in each case. In addition, the TGI in assay [6], in assay [7] and in assay [9] was over 100 µM each time.

`CC1(C)OC[C@@H]([C@@]2(CO[Si](c3ccccc3)(c3ccccc3)C(C)(C)C)CC=CC(=O)O2)O1`: the GI50 in [1] was 11.7 µM; in assay [2], 16.1 µM; in assay [4], 5.94 µM; in assay [5], 5.05 µM; in assay [10], 12.1 µM; in assay [6] it was 8.52 µM. Further, the GI50 in assay [7] is 4.98 µM; in assay [8], 6.23 µM; in [9] it was 5.86 µM. Moreover, the TGI was 33 µM in assay [1]; over 100 µM in assay [2]; 25.4 µM in [4]; over 100 µM in assay [5]; 37.8 µM in assay [10]; 60.5 µM in assay [6]. Moreover, the TGI in [7] is 31.2 µM; in [8] it was over 100 µM; in assay [9], 58.6 µM.

Consider `N#CC1c2ccccc2C=CN1C(=O)CCCl` (stereo not given), for which the GI50 in assay [1] was 2.16 µM; in [2] it was 2.79 µM; in assay [3], 9.09 µM; in assay [4], 17.6 µM; in [5], 14.4 µM; in assay [6], 13.6 µM. Moreover, the GI50 in assay [7] was 12.4 µM; in assay [8], 13.6 µM; in [9], 2.87 µM. The TGI in [1] was found to be 6.02 µM; in assay [2], 10.7 µM; in assay [3] it was 40.8 µM; in assay [4], 32 µM; in assay [5], 30.6 µM; in assay [6] it was 27.6 µM. For the same compound, the TGI in [7] worked out at 27.1 µM; in assay [8], 28 µM; in assay [9], 9.55 µM.

For `O=[N+]([O-])c1ccc(Cl)c2c([N+](=O)[O-])cccc12`, the TGI is over 10 µM in assay [1]; over 10 µM in assay [2]; 7.16 µM in assay [3]; over 10 µM in [5]; over 10 µM in [10]; 9.61 µM in [7]. The TGI in [8] and in assay [9] was over 10 µM throughout.

On to `O=C1c2cccc(Oc3ccccc3)c2C(=O)c2cccc(Oc3ccccc3)c21`, for which the GI50 is over 100 µM in assay [1]; over 100 µM in assay [3]; 33.3 µM in [4]; over 100 µM in [5]; over 100 µM in assay [10]; over 100 µM in [6]. Moreover, the values for the GI50 in assay [7], in assay [8] and in [9] were over 100 µM, 96.7 µM and over 100 µM, respectively. Also, the TGI in assay [1], in assay [3], in [4], in assay [5], in assay [10] and in assay [6] was over 100 µM throughout. The TGI in assay [7], in [8] and in [9] was over 100 µM throughout.

With `COC(=O)OC1C(O[C@H]2C[C@H]3[C@@H]4CC=C5C[C@@H](O)CC[C@]5(C)[C@H]4CC[C@]3(C)[C@H]2[C@H](C)C(=O)CCC(C)C)OCC(O)C1OC1OCC(O)C(O)C1OC(=O)c1ccc(OC)cc1` (stereo not given in full), the GI50 in [1] was 0.496 µM; in assay [2], 0.0823 µM; in [4], 0.00297 µM; in assay [5], 3.17 µM; in assay [10] it was 0.0196 µM; in assay [7], 0.00874 µM. For the same compound, the GI50 in assay [8] was 0.00538 µM; in assay [9], 0.137 µM. Also, the TGI in assay [1] was 17.5 µM; in assay [2], over 27.5 µM; in assay [4] it was 3.91 µM; in [5] it was over 27.5 µM; in [10] it was 2.55 µM; in [7] it was 0.0868 µM. In addition, the TGI in [8] came to 0.0855 µM; in assay [9], 1.26 µM.
